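Five concentrations, 48 hours, 96-well plates. GI50 marks 50% less growth. TGI: concentration producing complete growth inhibition.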
Columns and labels:
Assay in all cases: DTP human tumour cell line panel, 48 h
[1] = tested on: 786-0 renal
[2] = tested on: A498 renal
[3] = tested on: A549 NSCLC
[4] = tested on: ACHN renal
[5] = tested on: BT-549 breast
[6] = tested on: CAKI-1 renal
[7] = tested on: CCRF-CEM leukemia
[8] = tested on: COLO 205 colon
[9] = tested on: DU-145 prostate
[10] = tested on: EKVX NSCLC
[11] = tested on: HCC-2998 colon
[12] = tested on: HCT-116 colon
[13] = tested on: HCT-15 colon
[14] = tested on: HL-60(TB) leukemia
[15] = tested on: HOP-62 NSCLC
[16] = tested on: HOP-92 NSCLC
[17] = tested on: HS 578T breast
[18] = tested on: HT29 colon
[19] = tested on: IGROV1 ovarian
[20] = tested on: K-562 leukemia
[21] = tested on: KM12 colon
[22] = tested on: LOX IMVI melanoma
[23] = tested on: M14 melanoma
[24] = tested on: MCF7 breast
[25] = tested on: MDA-MB-231 breast
[26] = tested on: MDA-MB-435
[27] = tested on: MOLT-4 leukemia
[28] = tested on: NCI-H226 lung
[29] = tested on: NCI-H23 lung
[30] = tested on: NCI-H460 lung
[31] = tested on: NCI-H522 lung
[32] = tested on: NCI/ADR-RES ovarian
[33] = tested on: OVCAR-3 ovarian
[34] = tested on: OVCAR-4 ovarian
[35] = tested on: OVCAR-5 ovarian
[36] = tested on: OVCAR-8 ovarian
[37] = tested on: PC-3 prostate
[38] = tested on: RPMI-8226 leukemia
[39] = tested on: RXF 393 renal
[40] = tested on: SF-268 CNS
[41] = tested on: SF-295 CNS
[42] = tested on: SF-539 CNS
[43] = tested on: SK-MEL-2 melanoma
[44] = tested on: SK-MEL-28 melanoma
[45] = tested on: SK-MEL-5 melanoma
[46] = tested on: SN12C renal
[47] = tested on: SNB-19 CNS
[48] = tested on: SNB-75 CNS
[49] = tested on: SR leukemia
[50] = tested on: SW-620 colon
[51] = tested on: T-47D breast
[52] = tested on: TK-10 renal
[53] = tested on: UACC-257 melanoma
[54] = tested on: UACC-62 melanoma
[55] = tested on: UO-31 renal
[56] = tested on: MALME-3M melanoma
[57] = tested on: SK-OV-3 ovarian
[58] = tested on: U251 CNS

CC(=O)OC1CC2C(C)(C)C(=O)C=C[C@]2(C)C2CC[C@]3(C)C(OCC(=O)[C@H]3c3ccoc3)[C@]12C (stereo not given in full)
GI50 [1]: 4.66 µM
TGI [1]: 21.7 µM
GI50 [2]: 12.7 µM
TGI [2]: 29.7 µM
GI50 [3]: 6.28 µM
TGI [3]: 23.1 µM
GI50 [4]: 13.4 µM
TGI [4]: 31.4 µM
GI50 [5]: 8.63 µM
TGI [5]: 57.8 µM
GI50 [6]: 3.58 µM
TGI [6]: 23.9 µM
GI50 [7]: 4.06 µM
TGI [7]: 16.3 µM
GI50 [8]: 1.91 µM
TGI [8]: 8.48 µM
GI50 [9]: 3.89 µM
TGI [9]: 19.8 µM
GI50 [10]: 18 µM
TGI [10]: > 100 µM
GI50 [11]: 11.3 µM
TGI [11]: 24.7 µM
GI50 [12]: 3.42 µM
TGI [12]: 11.4 µM
GI50 [13]: 4.19 µM
TGI [13]: 15.8 µM
GI50 [14]: 3.11 µM
TGI [14]: 17.8 µM
GI50 [15]: 8.29 µM
TGI [15]: 21.6 µM
GI50 [16]: 10.7 µM
TGI [16]: 35.5 µM
GI50 [17]: 19.4 µM
TGI [17]: > 100 µM
GI50 [18]: 2.76 µM
TGI [18]: 11.6 µM
GI50 [19]: 7.83 µM
TGI [19]: 34.9 µM
GI50 [20]: 2.25 µM
TGI [20]: 7.04 µM
GI50 [21]: 3.77 µM
TGI [21]: 12.3 µM
GI50 [22]: 3.94 µM
TGI [22]: 14.9 µM
GI50 [23]: 12.4 µM
TGI [23]: 27.3 µM
GI50 [24]: 6.6 µM
TGI [24]: 35.7 µM
GI50 [25]: 8.99 µM
TGI [25]: 29.4 µM
GI50 [26]: 2.53 µM
TGI [26]: 8.58 µM
GI50 [27]: 3.62 µM
TGI [27]: 22.1 µM
GI50 [28]: 11.8 µM
TGI [28]: 31.4 µM
GI50 [29]: 8.66 µM
TGI [29]: 26.5 µM
GI50 [30]: 3.93 µM
TGI [30]: 15.2 µM
GI50 [31]: 3.15 µM
TGI [31]: 10.1 µM
GI50 [32]: 5.07 µM
TGI [32]: 22.9 µM
GI50 [33]: 5.56 µM
TGI [33]: 22.9 µM
GI50 [34]: 4.2 µM
TGI [34]: 17.2 µM
GI50 [35]: 23.9 µM
TGI [35]: 46.2 µM
GI50 [36]: 8.3 µM
TGI [36]: 27.6 µM
GI50 [37]: 3.88 µM
TGI [37]: 17.1 µM
GI50 [38]: 2.46 µM
TGI [38]: 6.8 µM
GI50 [39]: 4.43 µM
TGI [39]: 18.8 µM
GI50 [40]: 2.82 µM
TGI [40]: 10.5 µM
GI50 [41]: 16.5 µM
TGI [41]: 48.6 µM
GI50 [42]: 15.2 µM
TGI [42]: 31.3 µM
GI50 [43]: 13.8 µM
TGI [43]: 42.3 µM
GI50 [44]: 4.63 µM
TGI [44]: 18.5 µM
GI50 [45]: 11.5 µM
TGI [45]: 28 µM
GI50 [46]: 8.64 µM
TGI [46]: 28.6 µM
GI50 [47]: 6.53 µM
TGI [47]: 21.2 µM
GI50 [48]: 4.68 µM
TGI [48]: 17.1 µM
GI50 [49]: 2.27 µM
TGI [49]: 14.5 µM
GI50 [50]: 11.1 µM
TGI [50]: 39.3 µM
GI50 [51]: 2.97 µM
TGI [51]: 15.4 µM
GI50 [52]: 10.4 µM
TGI [52]: 35.7 µM
GI50 [53]: 2.51 µM
TGI [53]: 15 µM
GI50 [54]: 5.89 µM
TGI [54]: 21.7 µM
GI50 [55]: 10.1 µM
TGI [55]: 22.6 µM

C=C1C(=O)O[C@H]2[C@H]1CC/C(COC(=O)CCSSCCC(=O)OC/C1=C/CC[C@@]3(C)O[C@H]3[C@H]3OC(=O)C(=C)[C@@H]3CC1)=C\CC[C@@]1(C)O[C@@H]21
GI50 [1]: 1.28 µM
TGI [1]: 2.6 µM
GI50 [3]: 1.99 µM
TGI [3]: 4.27 µM
GI50 [4]: 0.897 µM
TGI [4]: 2.11 µM
GI50 [5]: 1.1 µM
TGI [5]: 2.33 µM
GI50 [6]: 1.28 µM
TGI [6]: 2.54 µM
GI50 [7]: 0.225 µM
TGI [7]: 1.19 µM
GI50 [8]: 1.16 µM
TGI [8]: 2.99 µM
GI50 [9]: 1.3 µM
TGI [9]: 2.57 µM
GI50 [10]: 1.61 µM
TGI [10]: 3.47 µM
GI50 [11]: 1.98 µM
TGI [11]: 3.93 µM
GI50 [12]: 0.33 µM
TGI [12]: 1.24 µM
GI50 [13]: 0.429 µM
TGI [13]: 1.76 µM
GI50 [14]: 0.448 µM
TGI [14]: 2.19 µM
GI50 [15]: 1.98 µM
TGI [15]: 4.64 µM
GI50 [16]: 1.02 µM
TGI [16]: 2.54 µM
GI50 [17]: 1.95 µM
TGI [17]: 7.45 µM
GI50 [18]: 0.819 µM
TGI [18]: 2.39 µM
GI50 [19]: 1.19 µM
TGI [19]: 2.66 µM
GI50 [20]: 0.465 µM
TGI [20]: 2.85 µM
GI50 [21]: 1.83 µM
TGI [21]: 3.69 µM
GI50 [22]: 1.6 µM
TGI [22]: 3.12 µM
GI50 [23]: 1.34 µM
TGI [23]: 2.88 µM
GI50 [56]: 1.08 µM
TGI [56]: 2.54 µM
GI50 [24]: 0.426 µM
TGI [24]: 2.32 µM
GI50 [25]: 1.23 µM
TGI [25]: 2.66 µM
GI50 [26]: 1.4 µM
TGI [26]: 3.07 µM
GI50 [27]: 0.437 µM
TGI [27]: 2.61 µM
GI50 [28]: 1.6 µM
TGI [28]: 3.34 µM
GI50 [29]: 1.73 µM
TGI [29]: 3.72 µM
GI50 [30]: 1.59 µM
TGI [30]: 3.34 µM
GI50 [31]: 0.688 µM
TGI [31]: 2.27 µM
GI50 [32]: 2.86 µM
TGI [32]: 10.2 µM
GI50 [33]: 0.65 µM
TGI [33]: 1.95 µM
GI50 [34]: 1.52 µM
TGI [34]: 3.12 µM
GI50 [35]: 1.59 µM
TGI [35]: 3.16 µM
GI50 [36]: 1.26 µM
TGI [36]: 3.02 µM
GI50 [37]: 1.33 µM
TGI [37]: 2.9 µM
GI50 [38]: 1.06 µM
TGI [38]: 3.9 µM
GI50 [39]: 0.247 µM
TGI [39]: 0.98 µM
GI50 [40]: 1.46 µM
TGI [40]: 3.08 µM
GI50 [41]: 3.5 µM
TGI [41]: 13.9 µM
GI50 [42]: 1.5 µM
TGI [42]: 2.91 µM
GI50 [43]: 1.93 µM
TGI [43]: 4.16 µM
GI50 [44]: 1.49 µM
TGI [44]: 2.95 µM
GI50 [45]: 1.44 µM
TGI [45]: 2.78 µM
GI50 [57]: 6.67 µM
TGI [57]: 19 µM
GI50 [46]: 1.14 µM
TGI [46]: 2.58 µM
GI50 [47]: 1.49 µM
TGI [47]: 3.16 µM
GI50 [48]: 1.8 µM
TGI [48]: 3.48 µM
GI50 [49]: 0.308 µM
TGI [49]: 2.77 µM
GI50 [50]: 0.458 µM
TGI [50]: 1.9 µM
GI50 [51]: 1.2 µM
TGI [51]: 4.01 µM
GI50 [52]: 1.62 µM
TGI [52]: 3.19 µM
GI50 [58]: 1.41 µM
TGI [58]: 2.86 µM
GI50 [53]: 1.6 µM
TGI [53]: 3.43 µM
GI50 [54]: 1.56 µM
TGI [54]: 3.16 µM
GI50 [55]: 1.08 µM
TGI [55]: 2.28 µM

O=c1[nH]c2cc(F)c(F)cc2nc1Cc1ccccc1
TGI [1]: > 100 µM
TGI [2]: > 100 µM
TGI [4]: > 100 µM
TGI [5]: > 100 µM
TGI [6]: > 100 µM
TGI [7]: > 100 µM
TGI [8]: > 100 µM
TGI [9]: > 100 µM
TGI [10]: > 100 µM
TGI [11]: > 100 µM
TGI [12]: > 100 µM
TGI [13]: > 100 µM
TGI [14]: > 100 µM
TGI [15]: > 100 µM
TGI [16]: > 100 µM
TGI [17]: > 100 µM
TGI [18]: > 100 µM
TGI [19]: > 100 µM
TGI [20]: > 100 µM
TGI [21]: > 100 µM
TGI [22]: > 100 µM
TGI [23]: > 100 µM
TGI [24]: > 100 µM
TGI [25]: > 100 µM
TGI [26]: > 100 µM
TGI [27]: > 100 µM
TGI [28]: > 100 µM
TGI [29]: > 100 µM
TGI [30]: > 100 µM
TGI [32]: > 100 µM
TGI [34]: > 100 µM
TGI [36]: > 100 µM
TGI [37]: > 100 µM
TGI [39]: > 100 µM
TGI [40]: > 100 µM
TGI [41]: > 100 µM
TGI [42]: > 100 µM
TGI [43]: > 100 µM
TGI [44]: > 100 µM
TGI [45]: > 100 µM
TGI [57]: > 100 µM
TGI [47]: > 100 µM
TGI [48]: > 100 µM
TGI [49]: > 100 µM
TGI [50]: > 100 µM
TGI [51]: > 100 µM
TGI [52]: > 100 µM
TGI [58]: > 100 µM
TGI [53]: > 100 µM
TGI [54]: > 100 µM
TGI [55]: > 100 µM
